The source of these data is patent publication US20130274258A1, “CARBAZOLE AND CARBOLINE DERIVATIVES, AND PREPARATION AND THERAPEUTIC APPLICATIONS THEREOF” (PHILIP MORRIS PRODUCTS S.A., priority 2010, published 2013).

For one data set, the system named is caspase 3 and 7. The data set can be described thus: Apoptosis induction in Jurkat cells, caspase 3 and 7 assay. The data set is classed as cell-based. How it is done:
Compounds were assessed for their ability to induce apoptosis of Jurkat cells at 2 and 10 micromolar after 4 and 22 hours.
In order to firmly establish that the compounds of the invention cause cytotoxicity through apoptosis, IC50 of five compounds of the invention, doxorubicin and staurosporin were determined in the caspase assays; results are presented in Table 2. Importantly, the IC50 determined in the Alamar Blue and in the caspase assays were largely overlapping.

A short description of data set [1]: Pharmacokinetics after intravenous injection, plasma concentration. The following applies: mice, 15 mg/kg intravenous. Type of data set: in vivo. How it is done:
The pharmacokinetics of E3 and E35 were investigated. Mice intravenously injected with 15 mg/kg of E3 were bled after 0, 1, 5, 10, 20, 30, 60, 120 and 480 minutes. […] For E35, mice intravenously injected with 30 mg/kg of […] were bled after 0, 1, 5, 10, 20, 30, 60, 120 and 480 minutes. […] Concentration then decreased steadily over the 8 hours of the study. During the first four hours after injection, circulating concentrations of E3 and E35 were found largely similar.

The subject of data set [2] is panel of human tumor cell lines. Put plainly: Sensitivity of a panel of human tumor cell lines, Alamar Blue. The following applies: graded doses, 22 hours + 4 hours Alamar Blue. Type of data set: cell-based. How it is done: Sensitivity and resistance of a panel of human tumor cell lines to treatment with E3 were investigated. An optimal number of cells (usually between 2'000 and 5'000 for adherent cells and 10'000 for cells growing in suspension) from the different tumor lines were treated with graded doses of E3. After 22 hours, Alamar Blue was added following the instructions provided by the manufacturer (Invitrogen). Four hours later, fluorescence of the wells was determined at 590 nm.

Data set [3] in a line: Solubilization in intravenous formulation. Type of data set: physicochemical. As to conditions: aqueous with cosolvent or surfactant or cyclodextrin; 5% Cremophor and 5% ethanol in water. The source says: This formulation was then used for the subsequent animal studies (maximal tolerated dose, pharmacokinetics and efficacy in cancer models).
For a further data set, the system named is fibrosarcoma HT1080. The data set can be described thus: Xenograft model in nude mice, fibrosarcoma HT1080. Type of data set: in vivo, human. As for the experimental part:
(§1) The compounds of the invention were evaluated in human tumor xenograft mouse models. Nude mice were subcutaneously implanted with tumor cells (melanoma A2058, colon carcinoma HCT116, fibrosarcoma HT1080 and acute myelocytic leukemia MV114) and when the tumor reached a volume of about 100-150 mm^3, treatment was initiated. Tumor growth was followed over time until tumor volume reached 1000-1500 mm^3 or up to 60 days. An example of how tumor developed over time when the animals were administered or not with E3 three times once a week (qwk×3) is presented in FIG. 7. […]

Data set [4] deals with acute myelocytic leukemia MV114. Put plainly: Xenograft model in nude mice, acute myelocytic leukemia MV114. The data set is classed as in vivo, human. How it is done: as §1
The next data set addresses purified porcine tubulin (Sus scrofa, UniProt P02550+P02554). Put plainly: Inhibition of 3H-labeled colchicine binding to purified tubulin, scintillation proximity assay. As to conditions: graded doses. How it is done: A series of compounds according to the invention and C14 vincristine and colchicine were tested for their capacity to inhibit ^3H-labeled colchicine binding to purified tubulin. Briefly, a limiting amount of tritium-labeled colchicine and graded doses of test compounds were added to purified porcine tubulin. After an incubation period, radioactivity associated with tubulin was determined using a scintillation proximity assay. […] By showing that these compounds interact with the colchicine binding site, it differentiates them from the tubulin inhibitors of the Vinca alkaloid- and taxane-types. The results also indicate that the compounds of the invention can be used in combination with the Vinca alkaloid- and taxane-types of tubulin inhibitors since they bind to a different aspect of tubulin, and likely affect tubulin polymerization via a different mechanism. The results also indicate that the compounds of the invention can be used even in patients who are refractory or non-responsive to other tubulin inhibitors, such as the tubulin inhibitors of the Vinca alkaloid- and taxane-types.

Data set [5] concerns Jurkat cells. The data set can be described thus: Annexin V staining of Jurkat cells by flow cytometry. Type of data set: cell-based. As to conditions: Homo sapiens, 22 hours, 0.005 to 10 μM, read-out: half-maximal annexin V staining. As for the experimental part:
Jurkat cells were cultured for 22 hours in the presence of E3 at 1.1 μM from a stock solution at 10 mM in DMSO or in the presence of graded concentrations of E3 (0.005 to 10 μM). Then, the cell's were stained with phycoerythrin-labeled annexin V following the instructions of the manufacturer (Millipore) and analyzed by flow cytometry (Guava, Millipore) to determine annexin V staining.

Another data set deals with colon carcinoma HCT116. Put plainly: Xenograft model in nude mice, colon carcinoma HCT116. The data set is classed as in vivo, human. How it is done:
as §1

Data set [6] has as its system Jurkat cells. The data set can be described thus: Jurkat cell viability, resazurin (Alamar Blue) assay. The data set is classed as cell-based. The following applies: Homo sapiens, Jurkat. How it is done:
The compounds were tested for pharmacological activity. In each of the tests, each compound was tested at […] in duplicates. […] The percentage of response relative to the DMSO control was then calculated for the mean value of the duplicates of each test. The values of the three tests were finally averaged and the standard deviations calculated.
Jurkat cells (10'000 cells/well) were incubated in the presence of various concentrations of compounds, doxorubicin or staurosporine. Twenty-two hours later, cells were incubated with resazurin (20 μg/ml) for 4 hours and fluorescence was measured at 590 nm.

Another data set concerns melanoma A2058. Put plainly: Xenograft model in nude mice, melanoma A2058. The data set is classed as in vivo, human. How it is done: as §1
For a further data set, the system named is human tumor xenograft. Put plainly: Human tumor xenograft mouse models, summary over models. The data set is classed as in vivo. The following applies: nude mice, three times once a week (qwk×3), FIG. 7. How it is done: as §1
The mark [7] stands for this setting: median, endpoint = death or defined tumor volume, 23 without treatment.

SMILES strings stand for the structures. Bounds are passed on as bounds.

Sequence of purified porcine tubulin (P02554 whole entry): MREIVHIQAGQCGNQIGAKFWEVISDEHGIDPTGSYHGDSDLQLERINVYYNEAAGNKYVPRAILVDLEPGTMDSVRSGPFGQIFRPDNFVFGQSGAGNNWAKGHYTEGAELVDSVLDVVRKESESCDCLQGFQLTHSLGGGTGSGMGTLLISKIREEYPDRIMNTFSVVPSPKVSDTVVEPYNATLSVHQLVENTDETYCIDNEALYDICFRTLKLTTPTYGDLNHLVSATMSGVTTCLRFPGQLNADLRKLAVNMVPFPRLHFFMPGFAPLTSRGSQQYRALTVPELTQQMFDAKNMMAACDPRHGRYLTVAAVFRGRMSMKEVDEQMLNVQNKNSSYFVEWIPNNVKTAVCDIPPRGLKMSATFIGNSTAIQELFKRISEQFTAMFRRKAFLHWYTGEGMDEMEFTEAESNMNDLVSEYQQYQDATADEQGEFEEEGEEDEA
Sequence of purified porcine tubulin (P02550 whole entry): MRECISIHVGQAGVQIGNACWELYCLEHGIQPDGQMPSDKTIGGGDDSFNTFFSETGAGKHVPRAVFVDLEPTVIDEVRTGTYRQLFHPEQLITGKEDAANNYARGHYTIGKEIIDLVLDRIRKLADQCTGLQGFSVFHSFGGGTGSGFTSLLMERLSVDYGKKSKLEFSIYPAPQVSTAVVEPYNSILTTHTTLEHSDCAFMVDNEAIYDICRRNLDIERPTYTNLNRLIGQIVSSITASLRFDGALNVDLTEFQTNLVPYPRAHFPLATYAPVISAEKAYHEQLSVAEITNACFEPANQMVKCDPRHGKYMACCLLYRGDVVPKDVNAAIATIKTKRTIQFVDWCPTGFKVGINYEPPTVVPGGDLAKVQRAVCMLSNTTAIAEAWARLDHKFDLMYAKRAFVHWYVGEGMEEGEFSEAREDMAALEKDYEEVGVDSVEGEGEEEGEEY

On to `Cc1nccc2c1[nH]c1ccc(-c3cc(Cl)cc(Cl)c3)cc12` [Example E3, 6-(3,5-dichlorophenyl)-1-methyl-9H-pyrido[3,4-b]indole], for which the “caspase 3 and 7 activity compared to solvent control (%)” value with caspase 3 and 7 (2 μM after 4 h) is listed as −13.6%; with caspase 3 and 7 (2 μM after 22 h) it was 689.0%; in the data set on caspase 3 and 7 (10 μM after 4 h), 12.7%; in the data set with caspase 3 and 7 (10 μM after 22 h) it was 743.7%. The half-inhibitory concentration (IC50) in the data set on caspase 3 and 7 (Homo sapiens, Jurkat cells, caspase 3/7 assay) came out at 0.054 µM; in the data set with Jurkat cells [6], 89 nM. Further, the “exposure (plasma concentration) for several hours” value in data set [1] was 3 to 10 µg/mL. For the same compound, the concentration at 1 min in [1] (mouse, plasma, 1 minute after injection) is 60000 ng/mL. This compound gave a concentration at 20 min in data set [1] (mouse, plasma, 20 minutes) of 8000 ng/mL. The compound further registered a concentration at 8 h in data set [1] (mouse, plasma, 8 hours) of 3000 ng/mL. In addition, in data set [2], the “sensitivity of tumor cell lines of hematopoietic origin versus other cell lines” value is recorded as “more sensitive than the other cell lines”. In data set [3], this compound returned a solubility of no more than 3300 µg/mL. Besides, the “% time delay to reach study endpoint relative to no treatment” value with fibrosarcoma HT1080 (best treatment) is 91%; in data set [4] (best treatment) it was 52%; in the data set with colon carcinoma HCT116 (best treatment), 57%; in the data set on melanoma A2058 (best treatment), 22%. The “Days to reach study endpoint with best treatment” value with fibrosarcoma HT1080 (setting [7]) is recorded as 44 days; in data set [4] (median, endpoint = death or defined tumor volume, 21 without treatment), 32 days; in the data set on colon carcinoma HCT116 (setting [7]), 36 days; in the data set with melanoma A2058 (setting [7]) it was 28 days. Besides, the “inhibition of 3H-labeled colchicine binding to tubulin” value on purified porcine tubulin is “inhibited binding of colchicine”. In addition, in the data set on Jurkat cells [5], the EC50 fell in the range of 100 to 200 nM. For the same compound, the “effect on tumor growth” value with human tumor xenograft was “delayed tumor growth”.
As for `CC[C@]1(O)C[C@@H]2CN(CCc3c([nH]c4ccccc34)[C@@](C(=O)OC)(c3cc4c(cc3OC)N(C)[C@H]3[C@@](O)(C(=O)OC)[C@H](OC(C)=O)[C@]5(CC)C=CCN6CC[C@]43[C@@H]65)C2)C1` [Vinblastine, reference compound], the “Control with reference compound and days to study endpoint” value in data set [4] (reference compound) was “not reached by day 58 days”; with melanoma A2058 (reference compound), “Vinblastine, 45 days”.
